The text below walks through data of US11834453B2, “Substituted pyrimido[5,4-d]pyrimidines as HER2 inhibitors” (Array BioPharma Inc., priority 2020, dated 2023).

In general, IC50 refers to the point on the concentration scale where inhibition reaches its midpoint. The term efflux ratio denotes the permeability from basolateral to apical divided by that in the opposite direction, in the common usage.

The target in data set [1] is ErbB2 with Exon 20 YVMA insertion (HER2-YVMA) (Homo sapiens (Human), UniProt P04626, INS775YVMA). Nature of the data set: Cellular phosphorylation assay, constitutive ErbB2 phosphorylation (Y1196) in engineered NIH 3T3 cells, Assay 4. The class given is cell-based. The procedure, abridged:
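In-cell Western in NIH 3T3 cells carrying ErbB2 exon 20 YVMA insertion, with no ligand stimulation. One hour compound exposure at 37 °C before fixation and anti-pY1196 plus GAPDH staining with dual-wavelength fluorescence. IC50 derived after GAPDH normalization.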

Data set [2] deals with ErbB2 insYVMA (HER2-YVMA, SEQ ID NO: 2) (Homo sapiens, UniProt P04626, INS775YVMA/P1170A). Nature of the data set: biochemical. Conditions: ErbB2 insYVMA enzyme assay; read-out: Assay 1 IC50.
Chain of ErbB2 insYVMA (HER2-YVMA, SEQ ID NO: 2) (P04626 with tags, fused parts or gaps INS775YVMA/P1170A limits assumed): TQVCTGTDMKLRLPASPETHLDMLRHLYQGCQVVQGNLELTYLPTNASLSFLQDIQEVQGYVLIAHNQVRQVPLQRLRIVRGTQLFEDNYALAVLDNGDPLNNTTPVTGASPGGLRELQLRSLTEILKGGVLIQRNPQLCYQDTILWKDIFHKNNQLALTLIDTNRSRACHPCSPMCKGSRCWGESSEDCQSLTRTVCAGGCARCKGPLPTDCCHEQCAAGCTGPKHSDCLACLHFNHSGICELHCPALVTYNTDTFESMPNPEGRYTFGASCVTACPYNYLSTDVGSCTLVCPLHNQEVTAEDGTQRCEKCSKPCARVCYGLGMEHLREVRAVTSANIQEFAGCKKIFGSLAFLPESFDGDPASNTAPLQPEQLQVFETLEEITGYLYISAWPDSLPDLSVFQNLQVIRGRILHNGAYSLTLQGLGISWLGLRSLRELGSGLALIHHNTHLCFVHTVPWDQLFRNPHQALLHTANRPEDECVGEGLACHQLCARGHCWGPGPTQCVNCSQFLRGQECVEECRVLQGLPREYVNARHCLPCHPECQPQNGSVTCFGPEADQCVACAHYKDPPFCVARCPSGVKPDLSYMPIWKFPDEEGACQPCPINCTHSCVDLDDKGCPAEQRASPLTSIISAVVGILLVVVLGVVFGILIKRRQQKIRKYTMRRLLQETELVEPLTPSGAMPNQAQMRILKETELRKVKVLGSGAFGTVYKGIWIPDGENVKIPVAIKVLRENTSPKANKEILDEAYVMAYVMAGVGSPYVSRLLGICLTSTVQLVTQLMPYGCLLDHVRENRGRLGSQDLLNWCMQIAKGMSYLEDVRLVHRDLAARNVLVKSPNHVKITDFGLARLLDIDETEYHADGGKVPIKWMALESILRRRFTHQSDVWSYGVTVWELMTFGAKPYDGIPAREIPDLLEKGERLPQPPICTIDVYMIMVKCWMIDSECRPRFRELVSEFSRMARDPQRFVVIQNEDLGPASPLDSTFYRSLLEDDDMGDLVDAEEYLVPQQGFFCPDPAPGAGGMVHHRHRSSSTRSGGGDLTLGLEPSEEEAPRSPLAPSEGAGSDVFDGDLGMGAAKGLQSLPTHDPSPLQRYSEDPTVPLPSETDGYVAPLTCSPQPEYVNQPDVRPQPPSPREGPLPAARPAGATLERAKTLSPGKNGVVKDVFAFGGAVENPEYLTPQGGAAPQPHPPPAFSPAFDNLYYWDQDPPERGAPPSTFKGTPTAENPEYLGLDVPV
Another data set concerns the target EGFR wild type (EGFR WT) (Homo sapiens (Human), UniProt P00533). Nature of the data set: Cellular phosphorylation assay, EGF-stimulated EGFR phosphorylation in engineered NIH 3T3 cells, Phospho-EGFR DuoSet IC ELISA, Assay 5. The class given is cell-based. Put shortly:
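Phospho-EGFR ELISA on lysates of engineered NIH 3T3 EGFR WT cells, IC50 derived from concentration curves. Cells plated at 20,000/well overnight, given compound dilutions 1 h at 37 °C, then rEGF 100 ng/ml for a further 10 min before lysis.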
For orientation: ELISA stands for enzyme-linked immunosorbent assay.

For the next data set, the target named is EGFR (Homo sapiens (Human), UniProt P00533). As to the kind of experiment: ErbB enzyme assay (CisBio HTRF KinEASE-TK), Assay 3. The class given is biochemical. The procedure, abridged:
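First, enzyme was reacted with compound, 1 mM ATP and 250 nM biotinylated tyrosine-kinase peptide for 30 min at 22 °C at pH 7.4. Next, streptavidin-XL665 and cryptate antibody were added for 1 h. Finally, HTRF ratios were converted to POC and fitted to yield IC50.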
A general note: Time-resolved FRET reads energy transfer from a long-lived donor to a nearby acceptor.

For a further data set, the target named is MDR1 (P-gp) (Homo sapiens (Human), UniProt P08183). Nature of the data set: MDR1 transfected LLC-PK1 permeability/efflux, Assay 6. Conditions: pig.
Chain of MDR1 (P-gp) (P08183 whole entry): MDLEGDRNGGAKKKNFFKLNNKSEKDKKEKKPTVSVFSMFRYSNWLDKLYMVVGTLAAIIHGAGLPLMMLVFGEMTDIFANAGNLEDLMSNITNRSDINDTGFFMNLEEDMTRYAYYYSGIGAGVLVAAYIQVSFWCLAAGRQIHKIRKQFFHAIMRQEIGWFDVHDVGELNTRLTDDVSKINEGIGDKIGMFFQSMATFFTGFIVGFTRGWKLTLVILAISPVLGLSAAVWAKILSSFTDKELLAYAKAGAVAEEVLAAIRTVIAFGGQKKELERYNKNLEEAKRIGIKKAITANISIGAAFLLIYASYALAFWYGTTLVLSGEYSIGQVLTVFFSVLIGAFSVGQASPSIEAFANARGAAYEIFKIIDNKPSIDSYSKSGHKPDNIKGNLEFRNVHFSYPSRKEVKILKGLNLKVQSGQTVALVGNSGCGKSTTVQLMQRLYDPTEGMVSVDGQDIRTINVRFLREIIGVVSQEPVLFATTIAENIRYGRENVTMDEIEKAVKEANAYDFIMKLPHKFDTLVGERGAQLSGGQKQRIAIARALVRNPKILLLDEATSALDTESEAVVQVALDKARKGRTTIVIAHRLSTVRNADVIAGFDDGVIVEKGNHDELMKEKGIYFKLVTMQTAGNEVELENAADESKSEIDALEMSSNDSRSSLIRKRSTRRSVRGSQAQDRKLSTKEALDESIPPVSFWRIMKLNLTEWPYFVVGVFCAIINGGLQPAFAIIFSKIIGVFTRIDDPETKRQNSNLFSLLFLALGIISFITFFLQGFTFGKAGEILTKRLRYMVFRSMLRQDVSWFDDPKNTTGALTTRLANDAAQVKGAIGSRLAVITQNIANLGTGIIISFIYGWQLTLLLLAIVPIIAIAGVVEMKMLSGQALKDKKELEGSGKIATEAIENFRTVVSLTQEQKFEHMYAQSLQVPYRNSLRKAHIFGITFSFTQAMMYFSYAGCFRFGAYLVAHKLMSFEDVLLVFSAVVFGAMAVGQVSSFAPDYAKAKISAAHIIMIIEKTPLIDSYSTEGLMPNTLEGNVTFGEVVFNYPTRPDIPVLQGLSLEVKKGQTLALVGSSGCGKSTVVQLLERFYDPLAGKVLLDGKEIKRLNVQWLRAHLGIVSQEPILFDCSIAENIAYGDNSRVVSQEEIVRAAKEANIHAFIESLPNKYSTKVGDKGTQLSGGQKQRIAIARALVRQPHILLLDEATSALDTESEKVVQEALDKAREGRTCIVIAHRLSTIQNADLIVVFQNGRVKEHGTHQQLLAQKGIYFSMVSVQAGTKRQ
The target of a further data set is ErbB2 WT (Homo sapiens (Human), UniProt P04626). Nature of the data set: ErbB enzyme assay (CisBio HTRF KinEASE-TK), Assay 2. Type of data set: biochemical. The procedure, abridged: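 Readout is HTRF KinEASE-TK, using Sa-XL665 and cryptate antibody for 1 h at 22 °C, as percent of control between DMSO-only (100) and pre-quenched (0) reactions. The kinase reaction runs 30 min at 22 °C with 1 mM ATP and 250 nM biotinylated TK substrate, in HEPES pH 7.4 with MgCl2 and 2% DMSO.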

[3] abbreviates: LLC-PK1, Assay 6 Pe Ratio, efflux ratio Papp(B-A)/Papp(A-B), MDR1 transfected LLC-PK1.

Chain of ErbB2 with Exon 20 YVMA insertion (HER2-YVMA) (P04626 other isoform, or with tags, fused parts or gaps ins YVMA behind 775): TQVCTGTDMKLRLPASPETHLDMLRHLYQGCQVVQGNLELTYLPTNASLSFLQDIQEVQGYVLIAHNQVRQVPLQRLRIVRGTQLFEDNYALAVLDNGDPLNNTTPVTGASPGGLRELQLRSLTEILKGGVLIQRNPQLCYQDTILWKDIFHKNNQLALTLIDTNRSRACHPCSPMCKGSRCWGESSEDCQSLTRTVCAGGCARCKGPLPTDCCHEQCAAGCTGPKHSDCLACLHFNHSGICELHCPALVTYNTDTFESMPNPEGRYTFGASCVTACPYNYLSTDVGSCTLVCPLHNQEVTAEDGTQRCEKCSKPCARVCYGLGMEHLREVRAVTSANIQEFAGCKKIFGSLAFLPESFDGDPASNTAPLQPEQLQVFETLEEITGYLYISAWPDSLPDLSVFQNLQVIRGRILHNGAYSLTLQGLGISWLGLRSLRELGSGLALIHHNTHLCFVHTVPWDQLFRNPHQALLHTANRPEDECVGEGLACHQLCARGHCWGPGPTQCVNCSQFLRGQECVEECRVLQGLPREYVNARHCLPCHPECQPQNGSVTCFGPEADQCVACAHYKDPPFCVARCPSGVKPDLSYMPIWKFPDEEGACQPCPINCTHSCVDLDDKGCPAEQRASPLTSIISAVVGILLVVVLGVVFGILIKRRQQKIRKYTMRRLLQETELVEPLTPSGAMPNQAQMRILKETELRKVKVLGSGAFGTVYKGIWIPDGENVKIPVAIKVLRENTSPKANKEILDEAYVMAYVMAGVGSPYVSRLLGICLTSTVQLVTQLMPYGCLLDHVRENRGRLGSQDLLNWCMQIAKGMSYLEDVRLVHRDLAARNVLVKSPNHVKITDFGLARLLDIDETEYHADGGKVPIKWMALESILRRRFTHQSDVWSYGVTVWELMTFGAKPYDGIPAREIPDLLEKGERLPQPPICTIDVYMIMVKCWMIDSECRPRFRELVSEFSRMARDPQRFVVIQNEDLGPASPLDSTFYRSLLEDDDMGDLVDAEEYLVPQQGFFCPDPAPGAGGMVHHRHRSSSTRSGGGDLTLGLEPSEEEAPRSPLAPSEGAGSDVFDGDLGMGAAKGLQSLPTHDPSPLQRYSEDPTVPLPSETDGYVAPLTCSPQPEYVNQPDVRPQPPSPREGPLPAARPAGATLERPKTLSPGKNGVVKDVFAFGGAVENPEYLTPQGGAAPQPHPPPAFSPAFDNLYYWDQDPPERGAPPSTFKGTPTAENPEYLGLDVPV
Chain of EGFR (P00533 25-1210): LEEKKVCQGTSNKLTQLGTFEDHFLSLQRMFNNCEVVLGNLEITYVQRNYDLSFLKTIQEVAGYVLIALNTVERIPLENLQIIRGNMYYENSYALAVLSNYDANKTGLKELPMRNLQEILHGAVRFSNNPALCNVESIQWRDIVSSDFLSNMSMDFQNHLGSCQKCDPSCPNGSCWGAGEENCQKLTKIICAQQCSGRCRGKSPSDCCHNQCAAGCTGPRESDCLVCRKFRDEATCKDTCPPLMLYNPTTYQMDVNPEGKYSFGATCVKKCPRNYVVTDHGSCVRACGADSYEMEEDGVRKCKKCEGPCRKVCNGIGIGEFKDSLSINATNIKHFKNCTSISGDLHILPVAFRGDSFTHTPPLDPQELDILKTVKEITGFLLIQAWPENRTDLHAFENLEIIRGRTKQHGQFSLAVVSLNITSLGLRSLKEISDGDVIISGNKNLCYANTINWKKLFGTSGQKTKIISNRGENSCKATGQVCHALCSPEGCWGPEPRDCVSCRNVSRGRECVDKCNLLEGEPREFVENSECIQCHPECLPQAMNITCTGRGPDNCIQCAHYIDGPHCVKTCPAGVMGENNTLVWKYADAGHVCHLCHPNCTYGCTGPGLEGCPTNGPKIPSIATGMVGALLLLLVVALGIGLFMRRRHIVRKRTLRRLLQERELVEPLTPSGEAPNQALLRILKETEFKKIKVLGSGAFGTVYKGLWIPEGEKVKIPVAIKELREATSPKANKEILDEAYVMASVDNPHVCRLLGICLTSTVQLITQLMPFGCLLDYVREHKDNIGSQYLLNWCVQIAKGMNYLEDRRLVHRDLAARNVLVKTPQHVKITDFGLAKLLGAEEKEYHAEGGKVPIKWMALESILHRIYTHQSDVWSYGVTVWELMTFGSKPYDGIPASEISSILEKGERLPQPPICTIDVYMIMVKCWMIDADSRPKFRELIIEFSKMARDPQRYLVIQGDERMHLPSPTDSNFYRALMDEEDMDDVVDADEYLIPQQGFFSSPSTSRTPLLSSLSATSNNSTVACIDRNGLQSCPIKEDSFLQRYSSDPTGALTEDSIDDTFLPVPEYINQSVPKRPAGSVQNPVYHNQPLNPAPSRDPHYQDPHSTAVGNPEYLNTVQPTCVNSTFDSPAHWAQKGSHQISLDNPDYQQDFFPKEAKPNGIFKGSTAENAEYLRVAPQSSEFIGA

Take `Cc1cc(Nc2ncnc3cnc(N4CC(C(C)(C)O)C4)nc23)ccc1Oc1ccc2c(c1)ncn2C` [Example 118, 2-(1-(8-((3-methyl-4-((1-methyl-1H-benzo[d]imidazol-5-yl)oxy)phenyl)amino)pyrimido[5,4-d]pyrimidin-2-yl)azetidin-3-yl)propan-2-ol]: the IC50 was 0.0398 µM in data set [1]; 0.0542 µM in data set [2]; no less than 5 µM at EGFR wild type (EGFR WT); no less than 10 µM against EGFR; 0.0887 µM against ErbB2 WT. The efflux ratio at 2 h, 1 μM on MDR1 (P-gp) (setting [3]) was found to be 7.4.
`Cc1cc(Nc2ncnc3cnc(N4CC[C@H](S(C)(=O)=O)C4)nc23)ccc1Oc1ccc2c(c1)ncn2C` [Example 119, (S)—N-(3-methyl-4-((1-methyl-1H-benzo[d]imidazol-5-yl)oxy)phenyl)-6-(3-(methylsulfonyl)pyrrolidin-1-yl)pyrimido[5,4-d]pyrimidin-4-amine]: the half-maximal inhibitory concentration (IC50) is 0.0247 µM in data set [1]; 0.0268 µM in data set [2]; no less than 5 µM on EGFR wild type (EGFR WT); 9.32 µM against EGFR; 0.0307 µM against ErbB2 WT. Further, on MDR1 (P-gp) (setting [3]), the efflux ratio at 2 h, 1 μM worked out at 29.6.
With `Cc1cc(Nc2ncnc3cnc(N4CC[C@@H](S(C)(=O)=O)C4)nc23)ccc1Oc1ccc2c(c1)ncn2C` [Example 125, (R)—N-(3-methyl-4-((1-methyl-1H-benzo[d]imidazol-5-yl)oxy)phenyl)-6-(3-(methylsulfonyl)pyrrolidin-1-yl)pyrimido[5,4-d]pyrimidin-4-amine], the 50% inhibitory concentration (IC50) was 0.0324 µM in data set [1]; 0.0248 µM in data set [2]; no less than 5 µM at EGFR wild type (EGFR WT); no less than 10 µM at EGFR; 0.0556 µM against ErbB2 WT. In addition, the efflux ratio at 2 h, 1 μM at MDR1 (P-gp) (setting [3]) came out at 36.1.
Regarding `Cc1cc(Nc2ncnc3cnc(N4CC[C@H](C(C)(C)O)C4)nc23)ccc1Oc1ccc2c(c1)ncn2C` [Example 126, (S)-2-(1-(8-((3-methyl-4-((1-methyl-1H-benzo[d]imidazol-5-yl)oxy)phenyl)amino)pyrimido[5,4-d]pyrimidin-2-yl)pyrrolidin-3-yl)propan-2-ol], the half-maximal inhibitory concentration (IC50) is 0.0143 µM in data set [1]; 0.0155 µM in data set [2]; no less than 5 µM on EGFR wild type (EGFR WT); no less than 10 µM against EGFR; 0.0183 µM on ErbB2 WT. On MDR1 (P-gp) (setting [3]), the efflux ratio at 2 h, 1 μM came to 3.8.
Turning to `Cc1cc(Nc2ncnc3cnc(N(C)CC4(O)CC4)nc23)ccc1Oc1ccc2c(c1)ncn2C` [Example 166, 1-((methyl(8-((3-methyl-4-((1-methyl-1H-benzo[d]imidazol-5-yl)oxy)phenyl)amino)pyrimido[5,4-d]pyrimidin-2-yl)amino)methyl)cyclopropan-1-ol], the half-inhibitory concentration (IC50) was 0.003 µM in data set [1]; 0.0161 µM in data set [2]; no less than 5 µM at EGFR wild type (EGFR WT); no less than 10 µM on EGFR; 0.0397 µM on ErbB2 WT. In addition, the efflux ratio at 2 h, 1 μM on MDR1 (P-gp) (setting [3]) was determined as 4.6.
With `Cc1cc(Nc2ncnc3cnc(N4CCOC(C(F)F)C4)nc23)ccc1Oc1ccc2c(c1)ncn2C` (stereo not drawn) [Example 181, 6-(2-(difluoromethyl)morpholino)-N-(3-methyl-4-((1-methyl-1H-benzo[d]imidazol-5-yl)oxy)phenyl)pyrimido[5,4-d]pyrimidin-4-amine], the IC50 in data set [1] was 0.0534 µM; in data set [2], 0.0815 µM; against EGFR wild type (EGFR WT), no less than 5 µM; against EGFR, no less than 10 µM; at ErbB2 WT, 0.171 µM. In addition, the efflux ratio at 2 h, 1 μM at MDR1 (P-gp) (setting [3]) came to 0.3.
In the case of `Cc1cc(Nc2ncnc3cnc(N4CC5(CC5)CO4)nc23)ccc1Oc1ccc2c(c1)ncn2C` [Example 187, N-(3-methyl-4-((1-methyl-1H-benzo[d]imidazol-5-yl)oxy)phenyl)-6-(5-oxa-6-azaspiro[2.4]heptan-6-yl)pyrimido[5,4-d]pyrimidin-4-amine], the IC50 was 0.0143 µM in data set [1]; 0.0384 µM in data set [2]; no less than 5 µM against EGFR wild type (EGFR WT); no less than 10 µM on EGFR; 0.109 µM against ErbB2 WT. Moreover, on MDR1 (P-gp) (LLC-PK1), the efflux ratio at 2 h, 1 μM amounted to 2.7.
As to `Cc1cc(Nc2ncnc3cnc(NCC(C)(C)C#N)nc23)ccc1Oc1ccc2c(c1)ncn2C` [Example 200, 2,2-dimethyl-3-((8-((3-methyl-4-((1-methyl-1H-benzo[d]imidazol-5-yl)oxy)phenyl)amino)pyrimido[5,4-d]pyrimidin-2-yl)amino)propanenitrile], the IC50 in data set [1] is 0.0149 µM; in data set [2], 0.0186 µM; on EGFR wild type (EGFR WT), 4.52 µM; on EGFR it was no less than 10 µM; on ErbB2 WT, 0.0526 µM. Moreover, on MDR1 (P-gp) (setting [3]), the efflux ratio at 2 h, 1 μM is 8.1.
On to `Cc1cc(Nc2ncnc3cnc(N)nc23)ccc1Oc1ccc2c(c1)ncn2C` [Example 206, N8-(3-methyl-4-((1-methyl-1H-benzo[d]imidazol-5-yl)oxy)phenyl)pyrimido[5,4-d]pyrimidine-2,8-diamine bis(2,2,2-trifluoroacetate)], for which the IC50 in data set [1] was 0.0248 µM; in data set [2] it was 0.0126 µM; against EGFR wild type (EGFR WT), no less than 5 µM; at EGFR, no less than 10 µM; against ErbB2 WT, 0.0408 µM. For the same molecule, on MDR1 (P-gp) (setting [3]), the efflux ratio at 2 h, 1 μM was determined as 3.3.
For `Cc1cc(Nc2ncnc3cnc(N4CCC(C)(O)CC4)nc23)ccc1Oc1ccc2c(c1)ncn2C` [Example 209, 4-methyl-1-(8-((3-methyl-4-((1-methyl-1H-benzo[d]imidazol-5-yl)oxy)phenyl)amino)pyrimido[5,4-d]pyrimidin-2-yl)piperidin-4-ol], the concentration for half-maximal inhibition (IC50) in data set [1] is 0.0117 µM; in data set [2], 0.0292 µM; against EGFR wild type (EGFR WT), no less than 5 µM; against EGFR it was 9.53 µM; on ErbB2 WT, 0.0579 µM. Further, the efflux ratio at 2 h, 1 μM on MDR1 (P-gp) (setting [3]) was determined as 3.3.
In the case of `Cc1cc(Nc2ncnc3cnc(-c4ncco4)nc23)ccc1Oc1ccc2c(c1)ncn2C` [Example 226], the IC50 in data set [1] is 0.0654 µM; in data set [2] it was 0.0927 µM; at EGFR wild type (EGFR WT), no less than 5 µM; on EGFR, no less than 10 µM; at ErbB2 WT, 0.128 µM. Further, the efflux ratio at 2 h, 1 μM at MDR1 (P-gp) (setting [3]) came out at 3.2.
With `Cc1cc(Nc2ncnc3cnc(N4CCCC45COC5)nc23)ccc1Oc1ccc2c(c1)ncn2C` [Example 230], the IC50 was 0.0157 µM in data set [1]; 0.0258 µM in data set [2]; no less than 5 µM at EGFR wild type (EGFR WT); 8.56 µM at EGFR; 0.0292 µM against ErbB2 WT. Further, the efflux ratio at 2 h, 1 μM on MDR1 (P-gp) (setting [3]) worked out at 2.5.
Take `Cc1cc(Nc2ncnc3cnc(N4CC(CS(C)(=O)=O)C4)nc23)ccc1Oc1ccc2c(c1)ncn2C` [Example 232]: the IC50 was 0.0396 µM in data set [1]; 0.0153 µM in data set [2]; no less than 5 µM against EGFR wild type (EGFR WT); 6.41 µM on EGFR; 0.0124 µM at ErbB2 WT. In addition, the efflux ratio at 2 h, 1 μM on MDR1 (P-gp) (setting [3]) was 31.3.
`Cc1cc(Nc2ncnc3cnc(-c4cscn4)nc23)ccc1Oc1ccc2c(c1)ncn2C` [Example 235]: the IC50 is 0.0056 µM in data set [1]; 0.0745 µM in data set [2]; no less than 5 µM against EGFR wild type (EGFR WT); no less than 10 µM against EGFR; 0.0541 µM against ErbB2 WT. In addition, the efflux ratio at 2 h, 1 μM on MDR1 (P-gp) (setting [3]) was found to be 2.9.
Regarding `Cc1cc(Nc2ncnc3cnc(NCC(F)F)nc23)ccc1Oc1ccc2c(c1)ncn2C` [Example 251], the IC50 in data set [1] is 0.0066 µM; in data set [2], 0.0117 µM; against EGFR wild type (EGFR WT), no less than 5 µM; on EGFR it was 1.8 µM; on ErbB2 WT it was 0.0212 µM. In addition, the efflux ratio at 2 h, 1 μM at MDR1 (P-gp) (setting [3]) is 2.3.
Consider `Cc1cc(Nc2ncnc3cnc(N4C[C@@H]5CCCN5C4=O)nc23)ccc1Oc1ccc2c(c1)ncn2C` [Example 254], for which the half-inhibitory concentration (IC50) in data set [1] was 0.044 µM; in data set [2], 0.0532 µM; on EGFR wild type (EGFR WT), no less than 5 µM; at EGFR it was no less than 10 µM; against ErbB2 WT, 0.114 µM. Moreover, the efflux ratio at 2 h, 1 μM at MDR1 (P-gp) (setting [3]) is 9.9.
`Cc1cc(Nc2ncnc3cnc(NC4COC4)nc23)ccc1Oc1ccc2c(c1)ncn2C` [Example 259]: the IC50 in data set [1] was 0.0196 µM; in data set [2], 0.0297 µM; on EGFR wild type (EGFR WT) it was no less than 5 µM; on EGFR, no less than 10 µM; against ErbB2 WT, 0.0453 µM. The efflux ratio at 2 h, 1 μM on MDR1 (P-gp) (setting [3]) turned out to be 8.8.
For the molecule `Cc1cc(Nc2ncnc3cnc(N4CCC(C)S4(=O)=O)nc23)ccc1Oc1ccc2c(c1)ncn2C` (stereo not drawn) [Example 267], the IC50 in data set [1] is 0.0041 µM; in data set [2], 0.0343 µM; at EGFR wild type (EGFR WT) it was no less than 5 µM; at EGFR it was 3.95 µM; at ErbB2 WT, 0.0334 µM. In addition, the efflux ratio at 2 h, 1 μM at MDR1 (P-gp) (setting [3]) turned out to be 6.
Take `CCNc1ncc2ncnc(Nc3ccc(Oc4ccc5c(ccn5C)c4)c(C)c3)c2n1` [Example 269]: the IC50 in data set [1] was 0.0207 µM; in data set [2] it was 0.0121 µM; at EGFR wild type (EGFR WT), no less than 5 µM; on EGFR, 2.4 µM; at ErbB2 WT it was 0.0167 µM. Besides, the efflux ratio at 2 h, 1 μM at MDR1 (P-gp) (setting [3]) turned out to be 2.4.
